Patent US12215111B2, “Imidazopyridazine IL-17 inhibitor compounds” (Janssen Pharmaceutica NV, priority 2021, dated 2025)

Target: IL-17A(FLAG-Tagged): IL-17RA(His-Tagged) (Homo sapiens, UniProt Q16552, K93Q)
Test: IL-17A(FLAG-tagged):IL-17RA(His-tagged) binding disruption Eu-HTRF assay, Protocol 1
Conditions: FLAG tagged IL-17A at 2× final concentration (2.5 nM); simple average if tested more than once
Excerpt: IL-17A(FLAG-Tagged): IL-17RA(His-Tagged) Binding Disruption Eu-HTRF Assay
An antibody directed against the FLAG tag of IL-17A (SEQ ID NO:1) is labeled with the HTRF donor chromophore (Europium-cryptate). IL-17A is present as a dimer that is “locked into” this quaternary structure due to the formation of loop-spanning […] disulfide bridges. The construct of IL-17RA used in the assay excludes the outer-membrane portion of the receptor and is fused to a C-terminal 10×His tag (SEQ ID NO:2). An antibody directed against the His tag of the IL-17RA chimera is labeled with the HTRF acceptor chromophore (“D2”). The fluorescence-resonance energy transfer (FRET) depends on the vicinity of the donor chromophore to the acceptor, and interruption of the binding between the IL-17A and IL-17RA causes the reduction/loss of FRET. Therefore, this assay allows to evaluate the compound effect on the binding IL-17A and IL-17RA by monitoring the fluorescence intensity of donor vs acceptor. The assay was run using either Protocol 1 or Protocol 2 described below.
Protocol 1: 40 nL of 2-fold serial diluted compound solution for total 22 dilution points is added into each well of a 1536-well, white, low-volume, non-binding plate (Greiner #782904), then 2 μl of FLAG tagged IL-17A at 2× final concentration (2.5 nM) in solution of PBS+0.01% Triton-X100 is added to each well. The assay plate is briefly centrifuged then incubated for 1 h at rt. A mixed solution is prepared containing 2×5 nM 10HIS×IL-17RA, 2×2.5 nM Eu-anti-FLAG (CISBIO), 2×5 nM D2-anti-HIS (CISBIO) in PBS+0.01% Triton-X100+200 mM Potassium Fluoride (Sigma 60238) and […] of mix is added to each well of the assay plate. The plate is briefly centrifuged then incubated for 2 h at rt. The HTRF intensities at the wavelength of donor (620 nm) and acceptor (665 nm) are measured using BMG Pherastar. The ratio between intensities at two wavelengths is calculated and plotted against the compound concentration and the data is fitted to a one-site competition model to yield IC50 of the compound.

Sequence of UniProt Q16552 (Q16552 with tags, fused parts or gaps K93Q): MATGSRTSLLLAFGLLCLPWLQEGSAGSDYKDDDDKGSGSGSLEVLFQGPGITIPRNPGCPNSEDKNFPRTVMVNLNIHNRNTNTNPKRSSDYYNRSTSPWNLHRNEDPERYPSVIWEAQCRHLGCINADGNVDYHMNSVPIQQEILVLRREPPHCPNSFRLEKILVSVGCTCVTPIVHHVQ

| SMILES | IC50 |
| --- | --- |
| C[C@@H]1CN(Cc2cnn3cc([C@@H](NC(=O)c4nonc4C4CC4)C4CCC(F)(F)CC4)nc3c2)C(=O)N1 [Example 6, 4-Cyclopropyl-N—((S)—(4,4-difluorocyclohexyl)(7-(((R)-4-methyl-2-oxoimidazolidin-1-yl)methyl)imidazo[1,2-b]pyridazin-2-yl)methyl)-1,2,5-oxadiazole-3-carboxamide] | < 4 µM |
| COC[C@H](c1cnn2cc([C@H](COC(C)(C)C(F)(F)F)NC(=O)[C@H]3C[C@@H]3C(F)(F)F)nc2c1)N1C[C@@H](C(F)(F)F)NC1=O (relative stereo) [Example 33, (1S*,2S*)—N—((R)-1-(7-((S)-2-Methoxy-1-((S)-2-oxo-4-(trifluoromethyl)imidazolidin-1-yl)ethyl)imidazo[1,2-b]pyridazin-2-yl)-2-(1,1,1-trifluoro-2-methylpropan-2-yl)oxy)ethyl)-2-(trifluoromethyl)cyclopropane-1-carboxamide] | < 4 µM |
| O=C(N[C@H](c1cn2ncc(CN3CCNC3=O)cc2n1)C1CCC(F)(F)CC1)c1nonc1C1CC1 [Example 2, (S)-4-Cyclopropyl-N-((4,4-difluorocyclohexyl)(7-((2-oxoimidazolidin-1-yl)methyl)imidazo[1,2-b]pyridazin-2-yl)methyl)-1,2,5-oxadiazole-3-carboxamide] | < 4 µM |

System: IL-17A-induced G-CSF production in human normal keratinocyte (NHK)
Test: NHK assay: IL-17A-induced G-CSF production in normal human keratinocytes
Type: cell-based
Conditions: Homo sapiens, Keratinocyte; IL-17A 5 ng/mL, 24 h at 37° C., G-CSF by HTRF; simple average if tested more than once
Experimental: IL-17A acts directly on keratinocytes through binding to dimeric receptor IL-17RA/RC and drives the production of a number of inflammatory mediators known to be elevated in psoriasis lesional tissue. IL-17A small molecule inhibitors that block the IL-17A to interact with IL-17R would inhibit the IL-17A signaling in its targeted cells such as keratinocytes. The compound functional activity is evaluated for its impact on IL-17A-induced G-CSF production in human normal keratinocyte (NHK).
Adult normal human keratinocytes are cultured in keratinocyte growth medium (Lonza) in a flask till reaching ˜90% confluence, then cells are transferred to a 384-well plate at density of 3000-4000 cell/well. Recombinant human IL-17A (Gibco PHC9174) is pre-incubated with titrated compound or DMSO for 1 h at rt then added to the cell culture plate. The final concentration of IL-17A is 5 ng/mL and DMSO is 0.2%, in the culture containing 5% FBS. Cells are cultured/treated for 24 h at 37° C. Supernatants are collected and G-CSF production is measured through HTRF technology using Human G-CSF Kit (CisBio). G-CSF concentration was extrapolated from the standard curve and IC50 is determined using GraphPad Prism. Cell viability is also evaluated using CellTiter-Glo kit (Promega) and effect of compound on cell viability is compared to DMSO control.

| SMILES | IC50 |
| --- | --- |
| C[C@@H]1CN(Cc2cnn3cc([C@@H](NC(=O)c4nonc4C4CC4)C4CCC(F)(F)CC4)nc3c2)C(=O)N1 [Example 6, 4-Cyclopropyl-N—((S)—(4,4-difluorocyclohexyl)(7-(((R)-4-methyl-2-oxoimidazolidin-1-yl)methyl)imidazo[1,2-b]pyridazin-2-yl)methyl)-1,2,5-oxadiazole-3-carboxamide] | < 4 µM |
| Cc1nonc1C(=O)N[C@H](c1cn2ncc([C@@H](C3CC3)N3CC4(CC4)NC3=O)cc2n1)C1CCC(F)(F)CC1 [Example 21, N—[(S)—[7-[(R)-Cyclopropyl-(6-oxo-5,7-diazaspiro[2.4]heptan-5-yl)methyl]imidazo[1,2-b]pyridazin-2-yl]-(4,4-difluorocyclohexyl)methyl]-4-methyl-1,2,5-oxadiazole-3-carboxamide] | < 4 µM |
| Cc1nonc1C(=O)N[C@H](c1cn2ncc(CN3C[C@@](C)(C(F)(F)F)NC3=O)cc2n1)C1CCC(F)(F)CC1 [Example 28, N—((S)—(4,4-Difluorocyclohexyl)(7-(((S)-4-methyl-2-oxo-4-(trifluoromethyl)imidazolidin-1-yl)methyl)imidazo[1,2-b]pyridazin-2-yl)methyl)-4-methyl-1,2,5-oxadiazole-3-carboxamide] | < 4 µM |
| COC[C@H](c1cnn2cc([C@H](COC(C)(C)C(F)(F)F)NC(=O)[C@H]3C[C@@H]3C(F)(F)F)nc2c1)N1C[C@@H](C(F)(F)F)NC1=O (relative stereo) [Example 33, (1S*,2S*)—N—((R)-1-(7-((S)-2-Methoxy-1-((S)-2-oxo-4-(trifluoromethyl)imidazolidin-1-yl)ethyl)imidazo[1,2-b]pyridazin-2-yl)-2-(1,1,1-trifluoro-2-methylpropan-2-yl)oxy)ethyl)-2-(trifluoromethyl)cyclopropane-1-carboxamide] | < 4 µM |
| O=C(N[C@H](c1cn2ncc(CN3CCNC3=O)cc2n1)C1CCC(F)(F)CC1)c1nonc1C1CC1 [Example 2, (S)-4-Cyclopropyl-N-((4,4-difluorocyclohexyl)(7-((2-oxoimidazolidin-1-yl)methyl)imidazo[1,2-b]pyridazin-2-yl)methyl)-1,2,5-oxadiazole-3-carboxamide] | < 4 µM |
| CC(C)n1nccc1C(=O)N[C@H](c1cn2ncc([C@H](COC3CC3)N3C[C@@H](C(F)(F)F)NC3=O)cc2n1)C1CCC(F)(F)CC1 (single isomer, unassigned) [Example 44] | < 4 µM |
| [2H]C1([2H])N([C@H](COC)c2cnn3cc([C@H](COC(C)(C)C(F)(F)F)NC(=O)c4nonc4C4CC4)nc3c2)C(=O)NC1([2H])C(F)(F)F (stereo in doubt) [Example 34, 4-Cyclopropyl-N—((R)-1-(7-((S)-2-methoxy-1-((R)-2-oxo-4-(trifluoromethyl)imidazolidin-1-yl-4,5,5-d3)ethyl)imidazo[1,2-b]pyridazin-2-yl)-2-((1,1,1-trifluoro-2-methylpropan-2-yl)oxy)ethyl)-1,2,5-oxadiazole-3-carboxamide] | < 4 µM |
| COC[C@H](c1cnn2cc([C@H](CC(C)(C)C(F)(F)F)NC(=O)c3nonc3C)nc2c1)N1C[C@@H](C(F)(F)F)NC1=O [Example 14, 4-Methyl-N—((S)-4,4,4-trifluoro-1-(7-((S)-2-methoxy-1-((S)-2-oxo-4-(trifluoromethyl)imidazolidin-1-yl)ethyl)imidazo[1,2-b]pyridazin-2-yl)-3,3-dimethylbutyl)-1,2,5-oxadiazole-3-carboxamide] | < 4 µM |
| Cc1nonc1C(=O)N[C@@H](CCC(C)(C)C(F)(F)F)c1cn2ncc([C@@H](COC3CC3)N3C[C@@H](C(F)(F)F)NC3=O)cc2n1 [Example 38, N—((S)-1-(7-((S)-2-Cyclopropoxy-((S)-2-oxo-4-(trifluoromethyl)imidazolidin-1-yl)ethyl)imidazo[1,2-b]pyridazin-2-yl)-5,5,5-trifluoro-4,4-dimethylpentyl)-4-methyl-1,2,5-oxadiazole-3-carboxamide] | < 4 µM |
| COC[C@H](c1cnn2cc([C@H](COC(C)(C)C(F)(F)F)NC(=O)c3nonc3C)nc2c1)N1C[C@@](C)(C(F)(F)F)NC1=O (single isomer, unassigned) [Example 30] | < 4 µM |
| [2H]C1([2H])[C@@H](C(F)(F)F)NC(=O)N1[C@H](COC)c1cnn2cc([C@H](COC(C)(C)C(F)(F)F)NC(=O)c3nonc3C3CC3)nc2c1 (relative stereo) [Example 16, 4-Cyclopropyl-N—((R)-1-(7-((S)-2-methoxy-1-((S*)-2-oxo-4-(trifluoromethyl)imidazolidin-1-yl-5,5-d2)ethyl)imidazo[1,2-b]pyridazin-2-yl)-2-(1,1,1-trifluoro-2-methylpropan-2-yl)oxy)ethyl)-1,2,5-oxadiazole-3-carboxamide] | < 4 µM |
| COC[C@H](c1cnn2cc([C@H](CC(C)(C)C(F)(F)F)NC(=O)c3nonc3C3CC3)nc2c1)N1C[C@@H](C(F)(F)F)NC1=O [Example 13, 4-Cyclopropyl-N—((S)-4,4,4-trifluoro-1-(7-((S)-2-methoxy-1-((S)-2-oxo-4-(trifluoromethyl)imidazolidin-1-yl)ethyl)imidazo[1,2-b]pyridazin-2-yl)-3,3-dimethylbutyl)-1,2,5-oxadiazole-3-carboxamide] | < 4 µM |
| CC(C)(CC[C@H](NC(=O)c1nonc1C1CC1)c1cn2ncc([C@@H](COC3CC3)N3C[C@@H](C(F)(F)F)NC3=O)cc2n1)C(F)(F)F [Example 39, N—((S)-1-(7-((S)-2-Cyclopropoxy-((S)-2-oxo-4-(trifluoromethyl)imidazolidin-1-yl)ethyl)imidazo[1,2-b]pyridazin-2-yl)-5,5,5-trifluoro-4,4-dimethylpentyl)-4-cyclopropyl-1,2,5-oxadiazole-3-carboxamide] | < 4 µM |
| COC[C@H](c1cnn2cc([C@H](CC(C)(C)C(F)(F)F)NC(=O)c3ccnn3C(C)C)nc2c1)N1C[C@@H](C(F)(F)F)NC1=O [Example 15, 1-Isopropyl-N—((S)-4,4,4-trifluoro-1-(7-((S)-2-methoxy-((S)-2-oxo-4-(trifluoromethyl)imidazolidin-1-yl)ethyl)imidazo[1,2-b]pyridazin-2-yl)-3,3-dimethylbutyl)-1H-pyrazole-5-carboxamide] | < 4 µM |
| COC[C@H](c1cnn2cc([C@H](COC(C)(C)C(F)(F)F)NC(=O)[C@@H]3C[C@H]3C(F)(F)F)nc2c1)N1C[C@@H](C(F)(F)F)NC1=O (relative stereo) [Example 32, (1R*,2R*)—N—((R)-1-(7-((S)-2-Methoxy-((S)-2-oxo-4-(trifluoromethyl)imidazolidin-1-yl)ethyl)imidazo[1,2-b]pyridazin-2-yl)-2-(1,1,1-trifluoro-2-methylpropan-2-yl)oxy)ethyl)-2-(trifluoromethyl)cyclopropane-1-carboxamide] | < 4 µM |
| C[C@@]1(C(F)(F)F)CN(Cc2cnn3cc([C@@H](NC(=O)c4nonc4C4CC4)C4CCC(F)(F)CC4)nc3c2)C(=O)N1 [Example 29] | < 4 µM |
| CC(C)(OC[C@H](NC(=O)c1nonc1C1CC1)c1cn2ncc(CN3C[C@@H](C(F)(F)F)NC3=O)cc2n1)C(F)(F)F [Example 24] | < 4 µM |
| [2H]C1([2H])N([C@H](COC)c2cnn3cc([C@H](COC(C)(C)C(F)(F)F)NC(=O)c4nonc4C)nc3c2)C(=O)NC1([2H])C(F)(F)F (stereo in doubt) [Example 35, N—((R)-1-(7-((S)-2-Methoxy-1-((R)-2-oxo-4-(trifluoromethyl)imidazolidin-1-yl-4,5,5-d3)ethyl)imidazo[1,2-b]pyridazin-2-yl)-2-((1,1,1-trifluoro-2-methylpropan-2-yl)oxy)ethyl)-4-methyl-1,2,5-oxadiazole-3-carboxamide] | < 4 µM |
